row,SMILES,melting point
1,"CC(C)Nc1nc(Nc2cccc(NS(C)(=O)=O)c2)nc2[nH]cnc12 [Example 2, N-[3-(6-Isopropylamino-9H-purin-2-ylamino)-phenyl]-methanesulfonamide]",161 to 165 °C
2,"COCCOc1nc(Nc2cccc(NS(C)(=O)=O)c2)nc2[nH]cnc12 [Example 32, N-{3-[6-(2-Methoxy-ethoxy)-9H-purin-2-ylamino]-phenyl}-methanesulfonamide]",201 to 204 °C
3,"CN(C)c1cccc(CNc2nc(Nc3cccc(NS(C)(=O)=O)c3)nc3[nH]cnc23)c1 [Example 31, N-{3-[6-(3-Dimethylamino-benzylamino)-9H-purin-2-ylamino]-phenyl}-methanesulfonamide]",148 to 151 °C
4,"CN(C)CCNc1nc(Nc2cccc(NS(C)(=O)=O)c2)nc2[nH]cnc12 [Example 6, N-(3-{6-[2-Dimethylamino-ethylamino]-9H-purin-2-ylamino]-phenyl}-methanesulfonamide]",191 to 195 °C
5,"CS(=O)(=O)Nc1cccc(Nc2nc(OCC3CCCCC3)c3nc[nH]c3n2)c1 [Example 24, N-[3-(6-Cyclohexylmethoxy-9H-purin-2-ylamino)-phenyl]-methanesulfonamide]",169 to 172 °C
6,"CS(=O)(=O)Nc1cccc(Nc2nc(N3CCC(O)C3)c3nc[nH]c3n2)c1 (stereo not drawn) [Example 12, N-{3-[6-(3-Hydroxy-pyrrolidin-1-yl)-9H-purin-2-ylamino]-phenyl}-methanesulfonamide]",243 to 248 °C
7,"CC(C)N(CCNc1nc(Nc2cccc(NS(C)(=O)=O)c2)nc2[nH]cnc12)C(C)C [Example 5, N-(3-{6-[2-Diisopropylamino-ethylamino]-9H-purin-2-ylamino]-phenyl}-methanesulfonamide]",226 to 230 °C
8,"C[C@H](Nc1nc(Nc2cccc(NS(C)(=O)=O)c2)nc2[nH]cnc12)C(C)(C)C [Example 38, N-{3-[6-((S)-1,2,2-Trimethyl-propylamino)-9H-purin-2-ylamino]-phenyl}-methanesulfonamide]",150 to 153 °C
9,"CC(C)(CO)Nc1nc(Nc2cccc(NS(C)(=O)=O)c2)nc2[nH]cnc12 [Example 16, N-{3-[6-(2-Hydroxy-1,1-dimethyl-ethylamino)-9H-purin-2-ylamino]-phenyl}-methanesulfonamide]",215 to 218 °C
10,"C[C@H](Nc1nc(Nc2cccc(NS(C)(=O)=O)c2)nc2[nH]cnc12)c1ccccc1 [Example 40, N-{3-[6-((S)-1-Phenyl-ethylamino)-9H-purin-2-ylamino]-phenyl}-methanesulfonamide]",141 to 144 °C
11,"CS(=O)(=O)Nc1cccc(Nc2nc(NCCO)c3nc[nH]c3n2)c1 [Example 17, N-{3-[6-(2-Hydroxy-ethylamino)-9H-purin-2-ylamino]-phenyl}-methanesulfonamide]",163 to 166 °C
12,"CS(=O)(=O)Nc1cccc(Nc2nc(NCCc3c[nH]cn3)c3nc[nH]c3n2)c1 [Example 4, N-(3-{6-[2-(1H-Imidazol-4-yl)-ethylamino]-9H-purin-2-ylamino]-phenyl}-methanesulfonamide]",205 to 210 °C
13,"CS(=O)(=O)Nc1cccc(Nc2nc(NCCN3CCOCC3)c3nc[nH]c3n2)c1 [Example 22, N-{3-[6-(2-Morpholin-4-yl-ethylamino)-9H-purin-2-ylamino]-phenyl}-methanesulfonamide]",233 to 237 °C
14,"CS(=O)(=O)Nc1cccc(Nc2nc(N3CCCC3)c3nc[nH]c3n2)c1 [Example 14, N-[3-(6-Pyrrolidin-1-yl-9H-purin-2-ylamino)-phenyl]-methanesulfonamide]",164 to 168 °C
15,"CN1CCN(c2nc(Nc3cccc(NS(C)(=O)=O)c3)nc3[nH]cnc23)CC1 [Example 18, N-{3-[6-(4-Methyl-piperazin-1-yl)-9H-purin-2-ylamino]-phenyl}-methanesulfonamide]",148 to 151 °C
16,"CS(=O)(=O)Nc1cccc(Nc2nc(OC3CCOC3)c3nc[nH]c3n2)c1 (stereo not drawn) [Example 25, N-{3-[6-(Tetrahydro-furan-3-yloxy)-9H-purin-2-ylamino]-phenyl}-methanesulfonamide]",255 to 257 °C
17,"CN(CCC#N)c1nc(Nc2cccc(NS(C)(=O)=O)c2)nc2[nH]cnc12 [Example 8, N-(3-{6-[(2-Cyano-ethyl)-methyl-amino]-9H-purin-2-ylamino}-phenyl)-methanesulfonamide]",218 to 222 °C
18,CS(=O)(=O)Nc1cccc(Nc2nc(NC3CN4CCC3CC4)c3nc[nH]c3n2)c1 (stereo not drawn),200 to 204 °C
19,"CC(C)N(C)c1nc(Nc2cccc(NS(C)(=O)=O)c2)nc2[nH]cnc12 [Example 36, N-{3-[6-(Isopropyl-methyl-amino)-9H-purin-2-ylamino]-phenyl}-methanesulfonamide]",144 to 147 °C
20,"CS(=O)(=O)Nc1cccc(Nc2nc(NC3CCC3)c3nc[nH]c3n2)c1 [Example 1, N-[3-(6-Cyclobutylamino-9H-purin-2-ylamino)-phenyl]-methanesulfonamide]",142 to 146 °C
21,"CS(=O)(=O)Nc1cccc(Nc2nc(NCc3cccnc3)c3nc[nH]c3n2)c1 [Example 15, N-(3-{6-[(Pyridin-3-ylmethyl)-amino]-9H-purin-2-ylamino}-phenyl)-methanesulfonamide]",144 to 147 °C
22,"CS(=O)(=O)Nc1cccc(Nc2nc(NCC(O)CO)c3nc[nH]c3n2)c1 (stereo not drawn) [Example 11, N-{3-[6-(2,3-Dihydroxy-propylamino)-9H-purin-2-ylamino]-phenyl}-methanesulfonamide]",164 to 168 °C
23,"CS(=O)(=O)Nc1cccc(Nc2nc(OC3CCCC3)c3nc[nH]c3n2)c1 [Example 23, N-[3-(6-Cyclopentyloxy-9H-purin-2-ylamino)-phenyl]-methanesulfonamide]",137 to 140 °C

# Second part, the compound after the results:
row,melting point,SMILES
1,216 to 220 °C,"CS(=O)(=O)Nc1cccc(Nc2nc(NCc3ncc[nH]3)c3nc[nH]c3n2)c1 [Example 45, N-(3-{6-[(1H-Imidazol-2-ylmethyl)-amino]-9H-purin-2-ylamino}-phenyl)-methanesulfonamide]"
2,138 to 141 °C,"CC[C@H](Nc1nc(Nc2cccc(NS(C)(=O)=O)c2)nc2[nH]cnc12)c1ccccc1 [Example 92, N-{3-[6-((S)-1-Phenyl-propylamino)-9H-purin-2-ylamino]-phenyl}-methanesulfonamide]"
3,145 to 148 °C,"CS(=O)(=O)Nc1cccc(Nc2nc(NCc3ccccc3CO)c3nc[nH]c3n2)c1 [Example 93, N-{3-[6-(2-Hydroxymethyl-benzylamino)-9H-purin-2-ylamino]-phenyl}-methanesulfonamide]"
4,143 to 146 °C,"CCC(C)(C)[C@@H](C)Nc1nc(Nc2cccc(NS(C)(=O)=O)c2)nc2[nH]cnc12 [Example 65, N-{3-[6-((R)-1,2,2-Trimethyl-butylamino)-9H-purin-2-ylamino]-phenyl}-methanesulfonamide]"
5,168 to 171 °C,"CS(=O)(=O)Nc1cccc(Nc2nc(NCc3ccccc3O)c3nc[nH]c3n2)c1 [Example 94, N-{3-[6-(2-Hydroxy-benzylamino)-9H-purin-2-ylamino]-phenyl}-methanesulfonamide]"
6,203 to 205 °C,"CS(=O)(=O)Nc1cccc(Nc2nc(OC3CCCC3)c3cc[nH]c3n2)c1 [Example 43, N-[3-(4-Cyclopentyloxy-7H-pyrrolo[2,3-d]pyrimidin-2-ylamino)-phenyl]-methanesulfonamide]"
7,129 to 132 °C,"CC(C)N(CCO)c1nc(Nc2cccc(NS(C)(=O)=O)c2)nc2[nH]ccc12 [Example 87, N-(3-{4-[(2-Hydroxy-ethyl)-isopropyl-amino]-7H-pyrrolo[2,3-d]pyrimidin-2-ylamino}-phenyl)-methanesulfonamide]"
8,106 to 109 °C,"CC(C)[C@@H](CO)Nc1nc(Nc2cccc(NS(C)(=O)=O)c2)nc2[nH]ccc12 [Example 84, N-{3-[4-((S)-1-Hydroxymethyl-2-methyl-propylamino)-7H-pyrrolo[2,3-d]pyrimidin-2-ylamino]-phenyl}-methanesulfonamide]"
9,128 to 132 °C,"C[C@H](Nc1nc(Nc2cccc(NS(C)(=O)=O)c2)nc2[nH]ccc12)C(C)(C)C [Example 51, N-{3-[4-((S)-1,2,2-Trimethyl-propylamino)-7H-pyrrolo[2,3-d]pyrimidin-2-ylamino]-phenyl}-methanesulfonamide]"
10,159 to 162 °C,"CC(=O)Nc1cccc(CNc2nc(Nc3cccc(NS(C)(=O)=O)c3)nc3[nH]cnc23)c1 [Example 64, N-(3-{[2-(3-Methanesulfonylamino-phenylamino)-9H-purin-6-ylamino]-methyl}-phenyl)-acetamide]"
11,170 to 173 °C,"CS(=O)(=O)Nc1cccc(Nc2nc(NCc3cccc(N)c3)c3nc[nH]c3n2)c1 [Example 72, N-{3-[6-(3-Amino-benzylamino)-9H-purin-2-ylamino]-phenyl}-methanesulfonamide]"
12,221 to 225 °C,"CS(=O)(=O)Nc1cccc(Nc2nc(NCc3cccc(O)c3)c3nc[nH]c3n2)c1 [Example 73, N-{3-[6-(3-Hydroxy-benzylamino)-9H-purin-2-ylamino]-phenyl}-methanesulfonamide]"
13,136 to 139 °C,"CS(=O)(=O)Nc1cccc(Nc2nc(Oc3ccc(F)cc3)c3nc[nH]c3n2)c1 [Example 46, N-{3-[6-(4-Fluoro-phenoxy)-9H-purin-2-ylamino]-phenyl}-methanesulfonamide]"
14,270 to 273 °C,"CC(C)(C)CNc1nc(Nc2cccc(NS(C)(=O)=O)c2)nc2[nH]cnc12 [Example 50, N-{3-[6-(2,2-Dimethyl-propylamino)-9H-purin-2-ylamino]-phenyl}-methanesulfonamide]"
15,261 to 265 °C,"CS(=O)(=O)Nc1ccc(Nc2nc(NC3CCCC3)c3nc[nH]c3n2)cc1 [Example 44, N-[4-(6-Cyclopentylamino-9H-purin-2-ylamino)-phenyl]-methanesulfonamide]"
16,127 to 131 °C,"CC(C)NCCNc1nc(Nc2cccc(NS(C)(=O)=O)c2)nc2[nH]ccc12 [Example 82, N-{3-[4-(2-Isopropylamino-ethylamino)-7H-pyrrolo[2,3-d]pyrimidin-2-ylamino]-phenyl}-methanesulfonamide]"

# Reference: US20080261973A1, “Sulphonamidoaniline Derivatives Being Janus Kinase Inhibitors” (Novartis AG, priority 2005, published 2008)
